Experimental data reported in ChEMBL document CHEMBL6121063, “Identification of a Potent and Selective CDK9 Degrader as a Targeted Therapeutic Option for the Treatment of Small-Cell Lung Cancer” (J Med Chem, 2025).
pIC50: −log10 of the molar value. ≈ marks a conversion by molar mass, not a printed value.

Experiments:
NCI-H446 = test: Antiproliferative activity against human NCI-H446 cells assessed as inhibition of cell growth incubated for 72 hrs by CCK8 assay; type: functional, cell-based; conditions: NCI-H446, 72 h
[1] = biological target: T1, Protein cereblon/Cyclin-dependent kinase 9 (Homo sapiens, UniProt P50750+Q96SW2); test: PROTAC activity at CRBN/CDK9 in human NCI-H446 cells assessed as induction of CDK9 degradation at 10 nM by Western blot analysis relative to control; type: cell-based
Target sequence in this assay (P50750 whole entry, looked up): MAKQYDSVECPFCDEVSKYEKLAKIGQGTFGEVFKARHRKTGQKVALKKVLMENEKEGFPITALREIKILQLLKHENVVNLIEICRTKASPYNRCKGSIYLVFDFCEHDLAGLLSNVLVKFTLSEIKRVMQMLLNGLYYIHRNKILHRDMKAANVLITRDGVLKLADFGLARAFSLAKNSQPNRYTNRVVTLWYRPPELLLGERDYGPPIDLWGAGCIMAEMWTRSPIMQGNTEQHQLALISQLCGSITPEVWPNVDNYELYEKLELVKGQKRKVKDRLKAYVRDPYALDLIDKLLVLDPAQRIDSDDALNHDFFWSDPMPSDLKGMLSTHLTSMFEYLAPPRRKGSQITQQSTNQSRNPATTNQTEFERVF
Target sequence in this assay (Q96SW2 whole entry, looked up): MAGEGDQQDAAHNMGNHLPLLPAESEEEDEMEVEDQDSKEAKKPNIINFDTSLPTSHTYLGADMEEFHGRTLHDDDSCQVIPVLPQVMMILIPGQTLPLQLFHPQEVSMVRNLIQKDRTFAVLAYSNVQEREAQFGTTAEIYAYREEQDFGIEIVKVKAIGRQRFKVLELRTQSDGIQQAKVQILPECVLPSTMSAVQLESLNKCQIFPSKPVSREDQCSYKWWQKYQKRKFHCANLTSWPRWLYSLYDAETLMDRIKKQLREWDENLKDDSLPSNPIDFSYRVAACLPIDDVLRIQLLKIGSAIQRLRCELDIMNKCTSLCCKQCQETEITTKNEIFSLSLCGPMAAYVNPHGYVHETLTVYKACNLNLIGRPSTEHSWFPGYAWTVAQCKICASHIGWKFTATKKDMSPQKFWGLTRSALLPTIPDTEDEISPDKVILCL

[2] = biological target: T1, Protein cereblon/Cyclin-dependent kinase 9; test: PROTAC activity at CRBN/CDK9 in human NCI-H69 cells assessed as induction of CDK9 degradation at 10 nM by Western blot analysis relative to control; type: cell-based
Target sequence in this assay (P50750 whole entry, looked up): as the sequence (P50750 whole entry, looked up) above
Target sequence in this assay (Q96SW2 whole entry, looked up): as the sequence (Q96SW2 whole entry, looked up) above

NCI-H69 = test: Antiproliferative activity against human NCI-H69 cells assessed as inhibition of cell growth incubated for 72 hrs by CCK8 assay; type: functional, cell-based; conditions: NCI-H69, 72 h
[3] = Kinetic solubility of compound in FeSSIF buffer incubated for 2 hrs by LC-MS/MS analysis; type: physicochemical; conditions: read-out: Kinetic_solubility
[4] = Metabolic stability in human liver microsomes assessed as half-life; type: ADME, Microsome; conditions: for half-life: liver microsomes
[5] = Metabolic stability in mouse liver microsomes assessed as intrinsic clearance; type: ADME, Microsome; conditions: for microsomal CLint: liver microsomes, read-out: CLH
[6] = biological target: T1, Protein cereblon/Cyclin-dependent kinase 9; test: PROTAC activity at CRBN/CDK9 in human NCI-H69 cells assessed as induction of CDK9 degradation incubated for 8 hrs by Western blot analysis; type: cell-based
Target sequence in this assay (P50750 whole entry): as the sequence (P50750 whole entry, looked up) above
Target sequence in this assay (Q96SW2 whole entry): as the sequence (Q96SW2 whole entry, looked up) above

[7] = Metabolic stability in mouse liver microsomes assessed as parent compound remaining measured after 60 mins; type: ADME, Microsome; conditions: read-out: Stability
[8] = Metabolic stability in mouse liver microsomes assessed as half-life; type: ADME, Microsome; conditions: for half-life: liver microsomes
[9] = Metabolic stability in human liver microsomes assessed as parent compound remaining measured after 60 mins; type: ADME, Microsome; conditions: read-out: Stability
[10] = Metabolic stability in human liver microsomes assessed as intrinsic clearance; type: ADME, Microsome; conditions: for microsomal CLint: liver microsomes, read-out: CLH
[11] = Efflux ratio of apparent permeability across basolateral to apical over apical to basolateral side in human Caco-2 cells at 2 uM measured after 60 mins by HPLC analysis; type: ADME, cell-based
[12] = Apparent permeability across basolateral to apical side in human Caco-2 cells at 2 uM measured after 60 mins by HPLC analysis; type: ADME, cell-based
[13] = Apparent permeability across apical to basolateral side in human Caco-2 cells at 2 uM measured after 60 mins by HPLC analysis; type: ADME, cell-based

Work on `CN1C(=O)CCC(Nc2cccc(N3CCN(CC4CCN(CC(=O)N5CCC(NC(=O)c6n[nH]cc6NC(=O)c6c(Cl)cccc6Cl)CC5)CC4)CC3)c2)C1=O` (stereo unspecified) yielded a pIC50 (NCI-H446) of 6.23, an Activity [1] of 3.15% and an Activity [2] of 12.3%. For the same compound, the pIC50 (NCI-H69) was 6.30.
In the case of `O=C1CCC(N2C(=O)c3cccc(NCCCCCC(=O)N4CCC(NC(=O)c5n[nH]cc5NC(=O)c5c(Cl)cccc5Cl)CC4)c3C2=O)C(=O)N1` (stereo unspecified), the pIC50 (NCI-H446) was < 6.00, the Activity [1] was 27.1% and the Activity [2] was 17.1%. For the same compound, the pIC50 (NCI-H69) was < 6.00.
For `Cl.O=C1CCC(Nc2cccc(N3CCN(CC4CCN(CC(=O)N5CCC(NC(=O)c6n[nH]cc6NC(=O)c6c(Cl)cccc6Cl)CC5)CC4)CC3)c2)C(=O)N1` (stereo unspecified), the solubility kinetic at 2 h [3] was 290 µM.
`O=C(CNc1cccc2c1C(=O)N(C1CCC(=O)NC1=O)C2=O)NCCCCCCCCCCC(=O)N1CCC(NC(=O)c2n[nH]cc2NC(=O)c2c(Cl)cccc2Cl)CC1` (stereo unspecified) showed a pIC50 (NCI-H446) of 6.83, an Activity [1] of 27.9% and an Activity [2] of 21.8%. It also gave a pIC50 (NCI-H69) of 6.79.
Work on `O=C1CCC(N2C(=O)c3ccc(N4CC5CN(CC(=O)N6CCC(NC(=O)c7n[nH]cc7NC(=O)c7c(Cl)cccc7Cl)CC6)CC5C4)cc3C2=O)C(=O)N1` (stereo unspecified) yielded a pIC50 (NCI-H446) of 6.81, an Activity [1] of 38.9% and an Activity [2] of 49.4%. It also gave a pIC50 (NCI-H69) of 6.85.
Compound `O=C1CCC(N2C(=O)c3ccc(N4CCN(CC5CCN(C(=O)CN6CCC(NC(=O)c7n[nH]cc7NC(=O)c7c(Cl)cccc7Cl)CC6)CC5)CC4)cc3C2=O)C(=O)N1` (stereo unspecified) has a pIC50 (NCI-H446) of 8.43, a half-life [4] of 6.17 min and a microsomal CLint [5] of 16.4 µL/min/mg. The DC50 [6] was 4.5 nM, the remaining at 1 h [7] was 61.2% and the half-life [8] was 84.5 min. For the same compound, the remaining at 1 h [9] was 3.2%, the Activity [1] was 78.2% and the Activity [2] was 88.4%. For the same compound, the pIC50 (NCI-H69) was 8.19 and the microsomal CLint [10] was 225 µL/min/mg.
With `O=C1CCC(N2C(=O)c3ccc(N4CCN(C(=O)CN5CCC(NC(=O)c6n[nH]cc6NC(=O)c6c(Cl)cccc6Cl)CC5)CC4)cc3C2=O)C(=O)N1` (stereo unspecified) the pIC50 (NCI-H446) was 7.75, the Activity [1] was 51.9% and the Activity [2] was 44.2%. For the same compound, the pIC50 (NCI-H69) was 7.27.
For `O=C1CCC(N2C(=O)c3ccc(N4CCN(CC(=O)N5CCC(CN6CCC(NC(=O)c7n[nH]cc7NC(=O)c7c(Cl)cccc7Cl)CC6)CC5)CC4)cc3C2=O)C(=O)N1` (stereo unspecified), the pIC50 (NCI-H446) was 8.70, the half-life [4] was 4.75 min and the microsomal CLint [5] was 16.2 µL/min/mg. The DC50 [6] was 8.97 nM, the remaining at 1 h [7] was 61.1% and the half-life [8] was 85.6 min. The remaining at 1 h [9] was 1.2%, the Activity [1] was 81.3% and the Activity [2] was 86.1%. It also gave a pIC50 (NCI-H69) of 8.32 and a microsomal CLint [10] of 292 µL/min/mg.
With `O=C1CCC(N2C(=O)c3cccc(NCCCCCCC(=O)N4CCC(NC(=O)c5n[nH]cc5NC(=O)c5c(Cl)cccc5Cl)CC4)c3C2=O)C(=O)N1` (stereo unspecified) the pIC50 (NCI-H446) was < 6.00, the Activity [1] was 11.2% and the Activity [2] was 0.132%. The pIC50 (NCI-H69) was < 6.00.
`O=C1CCC(Nc2ccc(N3CCN(CC4CCN(CC(=O)N5CCC(NC(=O)c6n[nH]cc6NC(=O)c6c(Cl)cccc6Cl)CC5)CC4)CC3)cc2)C(=O)N1` (stereo unspecified) gave a pIC50 (NCI-H446) of 7.45, a half-life [4] of 58.8 min and a microsomal CLint [5] of 10.2 µL/min/mg. For the same compound, the DC50 [6] was 5.67 nM, the remaining at 1 h [7] was 72% and the half-life [8] was 136 min. It also gave a remaining at 1 h [9] of 64.7%, an Activity [1] of 74.1% and an Activity [2] of 88.9%. It also gave a pIC50 (NCI-H69) of 7.96 and a microsomal CLint [10] of 26 µL/min/mg.
For `O=C1CCC(N2C(=O)c3ccc(N4CCN(C(=O)CCCC(=O)N5CCC(NC(=O)c6n[nH]cc6NC(=O)c6c(Cl)cccc6Cl)CC5)CC4)cc3C2=O)C(=O)N1` (stereo unspecified), the pIC50 (NCI-H446) was 6.45, the Activity [1] was 3.22% and the Activity [2] was 3.8%. It also gave a pIC50 (NCI-H69) of 6.58.
In the case of `O=C1CCC(N2C(=O)c3cccc(NCCCCC(=O)N4CCC(NC(=O)c5n[nH]cc5NC(=O)c5c(Cl)cccc5Cl)CC4)c3C2=O)C(=O)N1` (stereo unspecified), the pIC50 (NCI-H446) was 6.11, the Activity [1] was 9.92% and the Activity [2] was 3.91%. For the same compound, the pIC50 (NCI-H69) was < 6.00.
In the case of `O=C1CCC(N2C(=O)c3cccc(NCCCCCN4CCC(NC(=O)c5n[nH]cc5NC(=O)c5c(Cl)cccc5Cl)CC4)c3C2=O)C(=O)N1` (stereo unspecified), the pIC50 (NCI-H446) was 6.87, the Activity [1] was 12.8% and the Activity [2] was 8.01%. It also gave a pIC50 (NCI-H69) of 6.66.
Compound `CC(C)NCC(O)COc1cccc2ccccc12` (stereo unspecified) [PROPRANOLOL] has an efflux ratio at 1 h, 2 µM [11] of 1.6, a Papp B→A at 1 h, 2 µM [12] of 15.4 ×10⁻⁶ cm/s and a Papp A→B at 1 h, 2 µM [13] of 9.64 ×10⁻⁶ cm/s.
`O=C1CCC(N2C(=O)c3ccc(N4CCN(C(=O)CN5CCC(CN6CCC(NC(=O)c7n[nH]cc7NC(=O)c7c(Cl)cccc7Cl)CC6)CC5)CC4)cc3C2=O)C(=O)N1` (stereo unspecified) gave a pIC50 (NCI-H446) of 7.74, an Activity [1] of 49.9% and an Activity [2] of 51.5%. It also gave a pIC50 (NCI-H69) of 8.24.
Work on `O=C1CCC(N2C(=O)c3ccc(N4CCN(CC(=O)N5CCC(NC(=O)c6n[nH]cc6NC(=O)c6c(Cl)cccc6Cl)CC5)CC4)cc3C2=O)C(=O)N1` (stereo unspecified) yielded a pIC50 (NCI-H446) of 6.46, an Activity [1] of 30.9% and an Activity [2] of 45.5%. The pIC50 (NCI-H69) was 6.14.
Compound `O=C1CCC(N2C(=O)c3cccc(NCCCCCCN4CCC(NC(=O)c5n[nH]cc5NC(=O)c5c(Cl)cccc5Cl)CC4)c3C2=O)C(=O)N1` (stereo unspecified) has a pIC50 (NCI-H446) of 7.27, an Activity [1] of 39.4% and an Activity [2] of 34%. It also gave a pIC50 (NCI-H69) of 7.02.
Work on `O=C1CCC(N2C(=O)c3ccc(N4CCN(CC5CCN(CC(=O)N6CCC(NC(=O)c7n[nH]cc7NC(=O)c7c(Cl)cccc7Cl)CC6)CC5)CC4)cc3C2=O)C(=O)N1` (stereo unspecified) yielded a pIC50 (NCI-H446) of 8.58, a half-life [4] of 30.4 min and a microsomal CLint [5] of 11 µL/min/mg. For the same compound, the efflux ratio at 1 h, 2 µM [11] was 16.2, the DC50 [6] was 3.8 nM and the remaining at 1 h [7] was 71.9%. It also gave a half-life [8] of 126 min, a solubility kinetic at 2 h [3] of 9.08 µM (≈ 7.83 µg/mL) and a remaining at 1 h [9] of 24.3%. It also gave an Activity [1] of 83.9%, an Activity [2] of 89.1% and a Papp B→A at 1 h, 2 µM [12] of 5.27 ×10⁻⁶ cm/s. It also gave a pIC50 (NCI-H69) of 8.89, a Papp A→B at 1 h, 2 µM [13] of 0.326 ×10⁻⁶ cm/s and a microsomal CLint [10] of 46 µL/min/mg.
Compound `O=C(O)Cc1ccccc1Nc1c(Cl)cccc1Cl` [DICLOFENAC] has a solubility kinetic at 2 h [3] of 316 µM (≈ 93.6 µg/mL).
In the case of `O=C1CCC(N2C(=O)c3ccc(N4CCN(C(=O)CCC(=O)N5CCC(NC(=O)c6n[nH]cc6NC(=O)c6c(Cl)cccc6Cl)CC5)CC4)cc3C2=O)C(=O)N1` (stereo unspecified), the pIC50 (NCI-H446) was 7.50, the Activity [1] was 31.8% and the Activity [2] was 39.1%. It also gave a pIC50 (NCI-H69) of 7.37.
`O=C1CCC(Nc2ccc(N3CCN(CC4CCN(CC(=O)N5CCC(NC(=O)c6n[nH]cc6NC(=O)c6c(Cl)cccc6Cl)CC5)CC4)CC3)c(F)c2)C(=O)N1` (stereo unspecified) gave a pIC50 (NCI-H446) of 7.25, an Activity [1] of 79.3% and an Activity [2] of 66.1%. The pIC50 (NCI-H69) was 7.35.
Compound `O=C1CCC(N2C(=O)c3cccc(NCCCCCCCN4CCC(NC(=O)c5n[nH]cc5NC(=O)c5c(Cl)cccc5Cl)CC4)c3C2=O)C(=O)N1` (stereo unspecified) has a pIC50 (NCI-H446) of 7.20, an Activity [1] of 21.3% and an Activity [2] of 10.6%. The pIC50 (NCI-H69) was 6.75.
`Cc1ncc2n1-c1ccc(Cl)cc1C(c1ccccc1F)=NC2` [MIDAZOLAM] gave a t1/2 ([4]; microsomes) of 2.9 min, a CLH ([5]; microsomes) of 1270 µL/min/mg and a t1/2 ([8]; microsomes) of 2.72 min. It also gave a CLH ([10]; microsomes) of 1200 µL/min/mg.
With `O=C1CCC(N2C(=O)c3ccc(N4CCC(OC(=O)CN5CCC(NC(=O)c6n[nH]cc6NC(=O)c6c(Cl)cccc6Cl)CC5)CC4)cc3C2=O)C(=O)N1` (stereo unspecified) the pIC50 (NCI-H446) was < 6.00, the Activity [1] was 18.6% and the Activity [2] was 25.2%. The pIC50 (NCI-H69) was 6.57.
